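Compound exposure: 48 hours, 5 concentrations, 96-well plates. GI50 = concentration required for 50% inhibition of growth.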 Active and inactive are the calls of the source. Cut-off read from the data, not from the text of the source: active = GI50 up to about 1.1 µM and inactive = higher.
Experiments:
Assay in all cases: inhibition of tumour cell growth, NCI panel, 48 h
SF-268 = tested on: SF-268
SR = tested on: SR
EKVX = tested on: EKVX
ACHN = tested on: ACHN
CAKI-1 = tested on: CAKI-1
Malme-3M = tested on: Malme-3M
SN12C = tested on: SN12C
NCI-H522 = tested on: NCI-H522
HOP-62 = tested on: HOP-62
786-0 = tested on: 786-0
M14 = tested on: M14
HCT-116 = tested on: HCT-116
MDA-MB-435 = tested on: MDA-MB-435
MDA-MB-231 = tested on: MDA-MB-231
OVCAR-3 = tested on: OVCAR-3
UO-31 = tested on: UO-31
COLO 205 = tested on: COLO 205
RXF 393 = tested on: RXF 393
OVCAR-5 = tested on: OVCAR-5
HL-60 = tested on: HL-60
SNB-75 = tested on: SNB-75
SF-295 = tested on: SF-295
UACC-257 = tested on: UACC-257
NCI/ADR-RES = tested on: NCI/ADR-RES
BT-549 = tested on: BT-549
NCI-H23 = tested on: NCI-H23
MCF7 = tested on: MCF7
U-251 = tested on: U-251
DU-145 = tested on: DU-145
SNB-19 = tested on: SNB-19
HCC 2998 = tested on: HCC 2998
LOX IMVI = tested on: LOX IMVI
PC-3 = tested on: PC-3
SK-MEL-2 = tested on: SK-MEL-2
OVCAR-4 = tested on: OVCAR-4
NCI-H460 = tested on: NCI-H460
SW-620 = tested on: SW-620
TK-10 = tested on: TK-10
IGROV-1 = tested on: IGROV-1
SK-MEL-28 = tested on: SK-MEL-28
K562 = tested on: K562
HCT-15 = tested on: HCT-15
T47D = tested on: T47D
MOLT-4 = tested on: MOLT-4
SK-MEL-5 = tested on: SK-MEL-5
CCRF-CEM = tested on: CCRF-CEM
RPMI-8226 = tested on: RPMI-8226
SK-OV-3 = tested on: SK-OV-3
KM12 = tested on: KM12
SF-539 = tested on: SF-539
MDA-N = tested on: MDA-N
OVCAR-8 = tested on: OVCAR-8
HT-29 = tested on: HT-29
NCI-H226 = tested on: NCI-H226
UACC-62 = tested on: UACC-62
Hs-578T = tested on: Hs-578T
A549 = tested on: A549
A498 = tested on: A498
HOP-92 = tested on: HOP-92

CCOC(=O)C(Cc1cn(S(=O)(=O)c2ccc(C)cc2)cn1)P(=O)(OCC)OCC (stereo not drawn)
GI50 (SF-268): > 100 µM (inactive) | GI50 (SR): > 100 µM (inactive) | GI50 (EKVX): > 100 µM (inactive) | GI50 (ACHN): > 100 µM (inactive) | GI50 (CAKI-1): > 100 µM (inactive) | GI50 (Malme-3M): > 100 µM (inactive) | GI50 (SN12C): > 100 µM (inactive) | GI50 (NCI-H522): > 100 µM (inactive) | GI50 (HOP-62): > 100 µM (inactive) | GI50 (786-0): > 100 µM (inactive) | GI50 (M14): > 100 µM (inactive) | GI50 (HCT-116): > 100 µM (inactive) | GI50 (MDA-MB-435): > 100 µM (inactive) | GI50 (MDA-MB-231): > 100 µM (inactive) | GI50 (OVCAR-3): > 100 µM (inactive) | GI50 (UO-31): > 100 µM (inactive) | GI50 (COLO 205): > 100 µM (inactive) | GI50 (RXF 393): > 100 µM (inactive) | GI50 (OVCAR-5): > 100 µM (inactive) | GI50 (HL-60): > 100 µM (inactive) | GI50 (SNB-75): > 100 µM (inactive) | GI50 (SF-295): > 100 µM (inactive) | GI50 (UACC-257): > 100 µM (inactive) | GI50 (NCI/ADR-RES): > 100 µM (inactive) | GI50 (BT-549): > 100 µM (inactive) | GI50 (NCI-H23): > 100 µM (inactive) | GI50 (MCF7): > 100 µM (inactive) | GI50 (U-251): > 100 µM (inactive) | GI50 (DU-145): > 100 µM (inactive) | GI50 (SNB-19): > 100 µM (inactive) | GI50 (HCC 2998): > 100 µM (inactive) | GI50 (LOX IMVI): > 100 µM (inactive) | GI50 (PC-3): > 100 µM (inactive) | GI50 (SK-MEL-2): > 100 µM (inactive) | GI50 (OVCAR-4): > 100 µM (inactive) | GI50 (NCI-H460): > 100 µM (inactive) | GI50 (SW-620): > 100 µM (inactive) | GI50 (TK-10): > 100 µM (inactive) | GI50 (IGROV-1): > 100 µM (inactive) | GI50 (SK-MEL-28): > 100 µM (inactive) | GI50 (K562): > 100 µM (inactive) | GI50 (HCT-15): > 100 µM | GI50 (T47D): > 100 µM (inactive) | GI50 (MOLT-4): > 100 µM (inactive) | GI50 (SK-MEL-5): > 100 µM (inactive) | GI50 (CCRF-CEM): > 100 µM (inactive) | GI50 (RPMI-8226): > 100 µM (inactive) | GI50 (SK-OV-3): > 100 µM (inactive) | GI50 (KM12): > 100 µM (inactive) | GI50 (SF-539): > 100 µM (inactive) | GI50 (MDA-N): > 100 µM (inactive) | GI50 (OVCAR-8): > 100 µM (inactive) | GI50 (HT-29): > 100 µM (inactive) | GI50 (NCI-H226): > 100 µM (inactive) | GI50 (UACC-62): > 100 µM (inactive) | GI50 (Hs-578T): > 100 µM (inactive) | GI50 (A549): > 100 µM (inactive)

CC(=O)OCCCCn1cnc2c(Cl)nc(Nc3ccccc3)nc21
GI50 (A498): > 100 µM (inactive) | GI50 (SR): > 100 µM (inactive) | GI50 (EKVX): > 100 µM (inactive) | GI50 (ACHN): > 100 µM (inactive) | GI50 (CAKI-1): 18.7 µM (inactive) | GI50 (Malme-3M): > 100 µM (inactive) | GI50 (SN12C): > 100 µM (inactive) | GI50 (NCI-H522): 16.5 µM (inactive) | GI50 (HOP-62): > 100 µM (inactive) | GI50 (786-0): > 100 µM (inactive) | GI50 (HCT-116): > 100 µM (inactive) | GI50 (MDA-MB-435): > 100 µM (inactive) | GI50 (MDA-MB-231): > 100 µM (inactive) | GI50 (OVCAR-3): > 100 µM (inactive) | GI50 (UO-31): > 100 µM (inactive) | GI50 (COLO 205): > 100 µM (inactive) | GI50 (OVCAR-5): > 100 µM (inactive) | GI50 (HL-60): > 100 µM (inactive) | GI50 (SF-295): > 100 µM (inactive) | GI50 (UACC-257): > 100 µM (inactive) | GI50 (NCI/ADR-RES): > 100 µM (inactive) | GI50 (BT-549): > 100 µM (inactive) | GI50 (NCI-H23): 54.7 µM (inactive) | GI50 (MCF7): > 100 µM (inactive) | GI50 (U-251): > 100 µM (inactive) | GI50 (DU-145): > 100 µM (inactive) | GI50 (HCC 2998): 42.9 µM (inactive) | GI50 (LOX IMVI): > 100 µM (inactive) | GI50 (PC-3): > 100 µM (inactive) | GI50 (OVCAR-4): > 100 µM (inactive) | GI50 (NCI-H460): > 100 µM (inactive) | GI50 (SW-620): > 100 µM (inactive) | GI50 (TK-10): > 100 µM (inactive) | GI50 (IGROV-1): > 100 µM (inactive) | GI50 (SK-MEL-28): > 100 µM (inactive) | GI50 (K562): > 100 µM (inactive) | GI50 (HCT-15): > 100 µM | GI50 (T47D): > 100 µM (inactive) | GI50 (MOLT-4): > 100 µM (inactive) | GI50 (SK-MEL-5): 65.6 µM (inactive) | GI50 (CCRF-CEM): > 100 µM (inactive) | GI50 (RPMI-8226): > 100 µM (inactive) | GI50 (KM12): > 100 µM (inactive) | GI50 (SF-539): > 100 µM (inactive) | GI50 (MDA-N): > 100 µM (inactive) | GI50 (OVCAR-8): > 100 µM (inactive) | GI50 (HT-29): > 100 µM (inactive) | GI50 (NCI-H226): > 100 µM (inactive) | GI50 (UACC-62): > 100 µM (inactive) | GI50 (Hs-578T): > 100 µM (inactive) | GI50 (A549): > 100 µM (inactive)

CC(C)(Br)C(Br)CCC1(C2CO2)CO1 (stereo not drawn)
GI50 (SF-268): > 5 µM (inactive) | GI50 (A498): > 5 µM (inactive) | GI50 (EKVX): > 5 µM (inactive) | GI50 (ACHN): > 5 µM (inactive) | GI50 (CAKI-1): > 5 µM (inactive) | GI50 (Malme-3M): > 5 µM (inactive) | GI50 (SN12C): > 5 µM (inactive) | GI50 (NCI-H522): > 5 µM (inactive) | GI50 (HOP-62): > 5 µM (inactive) | GI50 (786-0): > 5 µM (inactive) | GI50 (M14): > 5 µM (inactive) | GI50 (HCT-116): > 5 µM (inactive) | GI50 (MDA-MB-435): > 5 µM (inactive) | GI50 (MDA-MB-231): > 5 µM (inactive) | GI50 (OVCAR-3): > 5 µM (inactive) | GI50 (UO-31): > 5 µM (inactive) | GI50 (COLO 205): > 5 µM (inactive) | GI50 (RXF 393): > 5 µM (inactive) | GI50 (SNB-75): > 5 µM (inactive) | GI50 (SF-295): > 5 µM (inactive) | GI50 (UACC-257): > 5 µM (inactive) | GI50 (NCI/ADR-RES): > 5 µM (inactive) | GI50 (BT-549): > 5 µM (inactive) | GI50 (NCI-H23): > 5 µM (inactive) | GI50 (MCF7): > 5 µM (inactive) | GI50 (U-251): > 5 µM (inactive) | GI50 (DU-145): > 5 µM (inactive) | GI50 (SNB-19): > 5 µM (inactive) | GI50 (HCC 2998): > 5 µM (inactive) | GI50 (PC-3): > 5 µM (inactive) | GI50 (OVCAR-4): > 5 µM (inactive) | GI50 (SW-620): > 5 µM (inactive) | GI50 (HOP-92): > 5 µM (inactive) | GI50 (IGROV-1): > 5 µM (inactive) | GI50 (SK-MEL-28): > 5 µM (inactive) | GI50 (K562): > 5 µM (inactive) | GI50 (HCT-15): > 5 µM | GI50 (T47D): > 5 µM (inactive) | GI50 (MOLT-4): > 5 µM (inactive) | GI50 (SK-MEL-5): > 5 µM (inactive) | GI50 (CCRF-CEM): > 5 µM (inactive) | GI50 (RPMI-8226): > 5 µM (inactive) | GI50 (SK-OV-3): > 5 µM (inactive) | GI50 (SF-539): > 5 µM (inactive) | GI50 (MDA-N): > 5 µM (inactive) | GI50 (OVCAR-8): > 5 µM (inactive) | GI50 (HT-29): > 5 µM (inactive) | GI50 (NCI-H226): > 5 µM (inactive) | GI50 (Hs-578T): > 5 µM (inactive) | GI50 (A549): > 5 µM (inactive)

— ChEMBL document CHEMBL1201862, “PubChem BioAssay data set” (2004)
